The results in this text go back to ChEMBL document CHEMBL4507276 (2021).

In data set [1] the target is Mitogen-activated protein kinase kinase kinase 14 (Homo sapiens) (UniProt Q99558). The settings on record: Compound concentration 1000.0 nM.
In data set [2] the target is Melatonin receptor type 1A (Homo sapiens) (UniProt P48039). As to the kind of experiment: MT1 (ML1A) Cerep selectivity data (BI). The settings on record: Compound concentration 20.0 uM.
Data set [3] has as its target MAP kinase-activated protein kinase 2 (Homo sapiens) (UniProt P49137). Nature of the data set: MAPKAPK2 Invitrogen selectivity data (BI). The settings on record: Compound concentration 3.0 uM.
The target in data set [4] is Histamine H2 receptor (Homo sapiens) (UniProt P25021). Nature of the data set: H2/APT/HS Cerep selectivity data (BI). The settings on record: filed as antagonist, Compound concentration 20.0 uM.
For data set [5], the target named is Eukaryotic elongation factor 2 kinase (Homo sapiens) (UniProt O00418). Nature of the data set: EEF2K Invitrogen selectivity data (BI). The settings on record: Compound concentration 3.0 uM.
Data set [6] has as its system Epidermal growth factor receptor (Homo sapiens), P00533 [T790M]. Nature of the data set: EGFR T790M Invitrogen selectivity data (BI). The following applies: Compound concentration 3.0 uM.
Data set [7] addresses T1, 5-hydroxytryptamine receptor 1A (Homo sapiens) (UniProt P08908).
T1 sequence (whole entry): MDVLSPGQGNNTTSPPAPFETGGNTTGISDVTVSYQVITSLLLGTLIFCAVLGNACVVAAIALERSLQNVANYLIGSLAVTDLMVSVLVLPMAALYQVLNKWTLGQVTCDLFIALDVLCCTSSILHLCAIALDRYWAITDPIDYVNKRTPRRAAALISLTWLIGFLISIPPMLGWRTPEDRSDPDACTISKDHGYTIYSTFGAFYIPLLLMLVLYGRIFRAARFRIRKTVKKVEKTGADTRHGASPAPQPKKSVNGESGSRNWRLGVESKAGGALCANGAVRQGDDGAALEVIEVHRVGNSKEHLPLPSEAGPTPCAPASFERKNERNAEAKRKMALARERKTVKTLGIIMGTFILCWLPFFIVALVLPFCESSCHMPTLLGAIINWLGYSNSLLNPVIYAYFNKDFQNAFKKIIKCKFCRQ
As to the kind of experiment: 5HT1A/HU Eurofins-Panlabs selectivity data (BI). The following applies: Compound concentration 10.0 uM.

Data set [8] addresses Hepatocyte growth factor receptor (Homo sapiens) (UniProt P08581). As to the kind of experiment: MET Invitrogen selectivity data (BI). The settings on record: Compound concentration 3.0 uM.
For data set [9], the target named is NT-3 growth factor receptor (Homo sapiens) (UniProt Q16288). As to the kind of experiment: NTRK3 Invitrogen selectivity data (BI). The following applies: Compound concentration 3.0 uM.
The target in data set [10] is T2, Testis-specific serine/threonine-protein kinase 3 (Homo sapiens) (UniProt Q96PN8).
T2 sequence (whole entry): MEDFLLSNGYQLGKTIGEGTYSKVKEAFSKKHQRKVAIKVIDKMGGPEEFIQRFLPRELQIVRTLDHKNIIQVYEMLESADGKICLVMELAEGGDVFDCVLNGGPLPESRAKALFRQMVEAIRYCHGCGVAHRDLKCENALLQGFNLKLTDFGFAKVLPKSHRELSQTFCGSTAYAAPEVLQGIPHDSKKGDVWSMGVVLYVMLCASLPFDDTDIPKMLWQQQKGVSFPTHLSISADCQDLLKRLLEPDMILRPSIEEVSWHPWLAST
Nature of the data set: STK22D Invitrogen selectivity data (BI). The settings on record: Compound concentration 3.0 uM.

Data set [11] concerns the target Voltage-dependent N-type calcium channel subunit alpha-1B (Rattus norvegicus) (UniProt Q02294). As to the kind of experiment: CA+/N/R Cerep selectivity data (BI). The following applies: Compound concentration 20.0 uM.
In data set [12] the target is T3, Cyclin-dependent kinase 2/cyclin A (Homo sapiens) (UniProt P24941+P20248+P78396). Nature of the data set: CDK2/CYCLINA Invitrogen selectivity data (BI). Format: protein-complex assay. The following applies: Compound concentration 3.0 uM.
In data set [13] the target is Melanocortin receptor 3 (Homo sapiens) (UniProt P41968). Nature of the data set: MC3H_AGON Cerep selectivity data (BI). The settings on record: filed as agonist, Compound concentration 20.0 uM.
Melanocortin receptor 3 (Homo sapiens), sequence (P41968 whole entry): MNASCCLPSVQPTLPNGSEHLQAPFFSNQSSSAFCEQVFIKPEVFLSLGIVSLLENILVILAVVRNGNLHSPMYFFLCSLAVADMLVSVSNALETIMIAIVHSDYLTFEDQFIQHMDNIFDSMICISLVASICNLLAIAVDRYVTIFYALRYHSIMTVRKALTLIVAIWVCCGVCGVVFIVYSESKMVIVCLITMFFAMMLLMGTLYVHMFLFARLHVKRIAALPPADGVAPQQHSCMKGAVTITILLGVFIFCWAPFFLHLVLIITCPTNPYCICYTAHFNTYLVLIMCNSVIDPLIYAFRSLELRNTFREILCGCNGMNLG
The target of data set [14] is T3, Cyclin-dependent kinase 2/cyclin A (Homo sapiens). As to the kind of experiment: CDK2(CYCA)_CE Cerep selectivity data (BI). The settings on record: Compound concentration 20.0 uM. Format: protein-complex assay.
Data set [15] deals with Tyrosine-protein kinase ABL1 (Homo sapiens), P00519 [E255K]. Nature of the data set: ABL1 E255K Invitrogen selectivity data (BI). The following applies: Compound concentration 3.0 uM.
For data set [16], the target named is Sphingosine kinase 1 (Homo sapiens) (UniProt Q9NYA1). Nature of the data set: SPHK1 Invitrogen selectivity data (BI). The following applies: Compound concentration 3.0 uM.
The target in data set [17] is MAO-A (amine oxidase [flavin-containing] A) (Rattus norvegicus, UniProt P21396). As to the kind of experiment: MAO-A_ANTAG Cerep selectivity data (BI). On the set-up: mode of action antagonist; scale not given: the % may be the effect or the level left. The settings on record: compound concentration 20 uM, read-out: % Ctrl.
Data set [18] deals with Thyroid hormone receptor alpha (Rattus norvegicus) (UniProt P63059). As to the kind of experiment: TRTH_AGON Cerep selectivity data (BI). The settings on record: filed as agonist, Compound concentration 20.0 uM.
Thyroid hormone receptor alpha (Rattus norvegicus), sequence (P63059 whole entry): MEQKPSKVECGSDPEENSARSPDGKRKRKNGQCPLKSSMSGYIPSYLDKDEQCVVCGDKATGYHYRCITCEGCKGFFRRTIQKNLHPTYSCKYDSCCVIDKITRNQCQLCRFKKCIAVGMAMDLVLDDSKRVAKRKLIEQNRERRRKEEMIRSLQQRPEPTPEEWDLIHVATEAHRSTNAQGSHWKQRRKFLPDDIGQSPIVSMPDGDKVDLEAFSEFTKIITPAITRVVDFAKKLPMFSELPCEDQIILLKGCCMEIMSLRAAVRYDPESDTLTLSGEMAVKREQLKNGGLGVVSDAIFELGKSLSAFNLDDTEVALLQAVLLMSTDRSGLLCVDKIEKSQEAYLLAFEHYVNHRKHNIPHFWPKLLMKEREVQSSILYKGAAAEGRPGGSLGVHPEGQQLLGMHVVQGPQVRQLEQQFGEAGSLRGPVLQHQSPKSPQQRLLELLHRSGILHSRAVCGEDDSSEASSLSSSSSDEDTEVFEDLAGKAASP
Data set [19] has as its target Ephrin type-A receptor 2 (Homo sapiens) (UniProt P29317). Nature of the data set: EPHA2 Invitrogen selectivity data (BI). The following applies: Compound concentration 3.0 uM.
For data set [20], the target named is Tyrosine-protein kinase Blk (Homo sapiens) (UniProt P51451). Nature of the data set: BLK Invitrogen selectivity data (BI). The settings on record: Compound concentration 3.0 uM.
The target of data set [21] is Endothelin receptor type B (Homo sapiens) (UniProt P24530). As to the kind of experiment: ETB/HUM Eurofins-Panlabs selectivity data (BI). The following applies: Compound concentration 10.0 uM.
The target in data set [22] is G protein-coupled receptor kinase 5 (Homo sapiens) (UniProt P34947). Nature of the data set: GRK5 Invitrogen selectivity data (BI). The following applies: Compound concentration 3.0 uM.
The target in data set [23] is T4, Tyrosine-protein kinase receptor TYRO3 (Homo sapiens) (UniProt Q06418).
T4 sequence (whole entry): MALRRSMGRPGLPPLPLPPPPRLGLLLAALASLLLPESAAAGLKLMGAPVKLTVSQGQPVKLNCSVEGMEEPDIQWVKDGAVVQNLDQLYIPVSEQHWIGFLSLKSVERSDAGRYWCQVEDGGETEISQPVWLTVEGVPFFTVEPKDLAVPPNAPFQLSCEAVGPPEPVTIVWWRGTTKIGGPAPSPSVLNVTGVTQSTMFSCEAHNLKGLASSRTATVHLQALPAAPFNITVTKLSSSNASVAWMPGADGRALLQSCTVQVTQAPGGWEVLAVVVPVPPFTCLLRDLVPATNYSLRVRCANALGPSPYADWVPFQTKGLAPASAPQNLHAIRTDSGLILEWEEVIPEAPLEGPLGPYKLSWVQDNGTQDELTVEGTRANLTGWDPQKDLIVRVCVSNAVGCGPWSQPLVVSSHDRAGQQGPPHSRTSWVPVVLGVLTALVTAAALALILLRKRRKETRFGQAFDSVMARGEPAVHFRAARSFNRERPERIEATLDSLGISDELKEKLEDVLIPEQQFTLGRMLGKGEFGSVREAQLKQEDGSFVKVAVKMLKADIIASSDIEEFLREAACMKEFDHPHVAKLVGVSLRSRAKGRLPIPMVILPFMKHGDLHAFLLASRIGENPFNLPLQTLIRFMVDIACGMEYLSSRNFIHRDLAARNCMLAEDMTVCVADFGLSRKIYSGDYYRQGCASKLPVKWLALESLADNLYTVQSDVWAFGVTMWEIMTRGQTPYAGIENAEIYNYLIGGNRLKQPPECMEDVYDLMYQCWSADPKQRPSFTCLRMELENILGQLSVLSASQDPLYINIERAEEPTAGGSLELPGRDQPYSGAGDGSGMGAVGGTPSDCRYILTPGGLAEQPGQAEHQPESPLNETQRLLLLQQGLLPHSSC
As to the kind of experiment: TYRO3 Invitrogen selectivity data (BI). The following applies: Compound concentration 3.0 uM.

The target in data set [24] is Testis-specific serine/threonine-protein kinase 2 (Homo sapiens) (UniProt Q96PF2). As to the kind of experiment: STK22B Invitrogen selectivity data (BI). The following applies: Compound concentration 3.0 uM.
Testis-specific serine/threonine-protein kinase 2 (Homo sapiens), sequence (Q96PF2 whole entry): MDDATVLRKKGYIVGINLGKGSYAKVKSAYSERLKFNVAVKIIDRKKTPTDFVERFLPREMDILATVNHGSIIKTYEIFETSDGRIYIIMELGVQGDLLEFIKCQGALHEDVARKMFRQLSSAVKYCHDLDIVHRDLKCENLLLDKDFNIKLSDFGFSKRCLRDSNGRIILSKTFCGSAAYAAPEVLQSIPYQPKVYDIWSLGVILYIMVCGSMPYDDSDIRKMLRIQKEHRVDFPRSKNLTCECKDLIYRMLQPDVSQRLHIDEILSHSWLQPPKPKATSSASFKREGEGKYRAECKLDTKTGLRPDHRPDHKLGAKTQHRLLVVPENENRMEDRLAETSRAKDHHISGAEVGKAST

Voltage-dependent N-type calcium channel subunit alpha-1B (Rattus norvegicus), sequence (Q02294 whole entry, looked up): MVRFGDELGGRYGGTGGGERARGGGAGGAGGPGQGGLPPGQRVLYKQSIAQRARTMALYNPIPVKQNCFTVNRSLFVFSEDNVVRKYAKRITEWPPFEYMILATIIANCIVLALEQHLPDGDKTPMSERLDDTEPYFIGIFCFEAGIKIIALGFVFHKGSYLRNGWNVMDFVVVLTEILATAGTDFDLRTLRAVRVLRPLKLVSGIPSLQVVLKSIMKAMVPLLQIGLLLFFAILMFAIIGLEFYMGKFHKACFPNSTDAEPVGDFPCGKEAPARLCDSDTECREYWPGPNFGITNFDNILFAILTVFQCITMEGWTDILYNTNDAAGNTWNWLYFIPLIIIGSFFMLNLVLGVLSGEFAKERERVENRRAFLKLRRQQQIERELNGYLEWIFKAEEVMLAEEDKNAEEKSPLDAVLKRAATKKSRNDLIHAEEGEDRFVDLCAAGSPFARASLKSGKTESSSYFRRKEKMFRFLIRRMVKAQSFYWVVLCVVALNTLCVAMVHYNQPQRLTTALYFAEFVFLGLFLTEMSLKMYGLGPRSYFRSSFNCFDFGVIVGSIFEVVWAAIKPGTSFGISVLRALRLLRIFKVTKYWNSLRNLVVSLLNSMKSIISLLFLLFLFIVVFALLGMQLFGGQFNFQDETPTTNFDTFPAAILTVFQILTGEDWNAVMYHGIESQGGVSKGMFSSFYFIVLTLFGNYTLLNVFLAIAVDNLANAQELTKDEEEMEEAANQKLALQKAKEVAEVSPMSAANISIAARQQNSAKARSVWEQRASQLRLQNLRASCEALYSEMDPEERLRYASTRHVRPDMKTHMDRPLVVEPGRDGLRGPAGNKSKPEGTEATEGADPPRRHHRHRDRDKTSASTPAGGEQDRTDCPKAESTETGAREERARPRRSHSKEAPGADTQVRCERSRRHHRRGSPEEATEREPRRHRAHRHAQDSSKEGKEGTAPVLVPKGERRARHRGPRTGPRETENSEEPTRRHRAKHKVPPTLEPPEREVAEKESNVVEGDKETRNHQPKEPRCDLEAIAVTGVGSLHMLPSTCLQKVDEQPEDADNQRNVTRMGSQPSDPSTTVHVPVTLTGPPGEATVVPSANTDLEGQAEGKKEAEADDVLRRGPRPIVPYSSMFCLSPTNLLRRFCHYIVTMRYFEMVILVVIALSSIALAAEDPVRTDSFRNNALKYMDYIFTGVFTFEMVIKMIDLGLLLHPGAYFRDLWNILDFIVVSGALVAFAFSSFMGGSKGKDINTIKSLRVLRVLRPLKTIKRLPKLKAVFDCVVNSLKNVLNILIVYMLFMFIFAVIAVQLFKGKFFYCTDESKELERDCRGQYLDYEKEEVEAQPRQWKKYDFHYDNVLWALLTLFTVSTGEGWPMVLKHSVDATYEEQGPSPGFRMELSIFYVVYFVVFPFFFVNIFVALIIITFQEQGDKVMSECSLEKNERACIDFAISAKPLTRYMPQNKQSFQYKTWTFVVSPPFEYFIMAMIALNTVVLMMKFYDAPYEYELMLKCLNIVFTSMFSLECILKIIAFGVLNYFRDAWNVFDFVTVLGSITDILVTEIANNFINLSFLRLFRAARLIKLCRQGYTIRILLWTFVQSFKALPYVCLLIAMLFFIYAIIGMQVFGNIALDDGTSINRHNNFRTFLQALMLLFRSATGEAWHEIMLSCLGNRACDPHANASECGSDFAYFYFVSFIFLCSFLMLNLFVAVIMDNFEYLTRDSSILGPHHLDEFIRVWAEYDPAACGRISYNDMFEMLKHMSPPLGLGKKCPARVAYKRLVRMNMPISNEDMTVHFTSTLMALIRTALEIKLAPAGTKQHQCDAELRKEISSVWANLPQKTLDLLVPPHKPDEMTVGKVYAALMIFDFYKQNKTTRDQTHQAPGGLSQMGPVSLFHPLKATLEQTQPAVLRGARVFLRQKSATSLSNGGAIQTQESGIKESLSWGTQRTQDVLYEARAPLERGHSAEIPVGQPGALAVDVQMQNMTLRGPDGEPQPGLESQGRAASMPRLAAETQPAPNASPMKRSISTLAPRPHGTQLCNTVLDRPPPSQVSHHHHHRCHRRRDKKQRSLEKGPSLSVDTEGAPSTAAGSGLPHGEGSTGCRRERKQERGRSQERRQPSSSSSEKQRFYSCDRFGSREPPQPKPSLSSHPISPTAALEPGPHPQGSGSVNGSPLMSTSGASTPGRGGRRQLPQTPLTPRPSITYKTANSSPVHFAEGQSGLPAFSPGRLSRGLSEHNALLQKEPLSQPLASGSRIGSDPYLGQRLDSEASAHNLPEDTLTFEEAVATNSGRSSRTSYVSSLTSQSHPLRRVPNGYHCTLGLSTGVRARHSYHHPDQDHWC
Hepatocyte growth factor receptor (Homo sapiens), sequence (P08581 whole entry): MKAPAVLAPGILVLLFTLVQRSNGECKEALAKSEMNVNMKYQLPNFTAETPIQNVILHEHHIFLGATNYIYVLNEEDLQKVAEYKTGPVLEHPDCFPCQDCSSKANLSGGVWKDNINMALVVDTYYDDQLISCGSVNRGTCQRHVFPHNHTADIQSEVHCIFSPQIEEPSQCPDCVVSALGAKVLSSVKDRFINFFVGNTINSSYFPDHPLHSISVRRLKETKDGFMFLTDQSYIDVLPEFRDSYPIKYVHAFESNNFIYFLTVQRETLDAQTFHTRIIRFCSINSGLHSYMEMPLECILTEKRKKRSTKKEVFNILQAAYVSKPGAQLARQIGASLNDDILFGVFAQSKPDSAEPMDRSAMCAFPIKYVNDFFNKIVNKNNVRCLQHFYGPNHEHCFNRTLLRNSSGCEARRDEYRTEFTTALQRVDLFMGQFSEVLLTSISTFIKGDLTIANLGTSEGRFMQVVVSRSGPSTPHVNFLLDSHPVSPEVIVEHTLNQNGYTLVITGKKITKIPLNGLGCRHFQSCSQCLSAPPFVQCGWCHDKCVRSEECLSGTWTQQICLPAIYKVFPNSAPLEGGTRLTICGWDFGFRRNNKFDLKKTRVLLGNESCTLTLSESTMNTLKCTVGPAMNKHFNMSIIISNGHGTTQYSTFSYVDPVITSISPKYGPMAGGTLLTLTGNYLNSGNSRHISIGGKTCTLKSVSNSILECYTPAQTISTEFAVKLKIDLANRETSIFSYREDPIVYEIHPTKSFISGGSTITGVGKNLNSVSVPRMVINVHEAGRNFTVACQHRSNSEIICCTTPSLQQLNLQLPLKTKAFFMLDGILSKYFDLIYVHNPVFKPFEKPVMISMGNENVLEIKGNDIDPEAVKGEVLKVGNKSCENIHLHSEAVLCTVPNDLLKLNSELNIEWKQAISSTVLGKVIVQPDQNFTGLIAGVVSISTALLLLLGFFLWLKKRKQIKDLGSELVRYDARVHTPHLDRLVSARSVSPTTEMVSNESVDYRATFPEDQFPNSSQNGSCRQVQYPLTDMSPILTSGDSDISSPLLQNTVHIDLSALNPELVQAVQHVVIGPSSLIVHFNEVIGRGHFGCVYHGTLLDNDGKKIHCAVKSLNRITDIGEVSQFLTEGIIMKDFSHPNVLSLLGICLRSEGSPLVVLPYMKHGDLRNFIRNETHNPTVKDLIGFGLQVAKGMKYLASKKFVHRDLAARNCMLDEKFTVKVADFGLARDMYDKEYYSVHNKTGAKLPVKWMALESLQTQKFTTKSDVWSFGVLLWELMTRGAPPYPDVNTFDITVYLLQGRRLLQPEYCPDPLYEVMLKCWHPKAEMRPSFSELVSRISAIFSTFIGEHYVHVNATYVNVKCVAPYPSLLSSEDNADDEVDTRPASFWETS

In the case of `CN(C)C(=O)Cn1cc(-c2nc(C3(c4ccc(-c5cnc(N)nc5)cc4)CC3)no2)cn1` [BI 0153], in [1], the residual activity is 83%.

Regarding `CN(C)C(=O)Cn1cc(-c2nc([C@@](C)(c3ccc(-c4cnc(N)nc4)cc3)C3CC3)no2)cn1` [BI 665915], the residual activity is 91% in data set [2]; 96.5% in [3]; 96% in [4]; 93.5% in data set [5]; 104% in data set [6]; 127% in data set [7]. Besides, the residual activity is 97% in [8]; 93% in [9]; 96.5% in data set [10]; 96% in data set [11]; 100% in data set [12]; 94% in data set [13]. Further, the residual activity in [14] was 118%; in data set [15] it was 82%; in data set [16] it was 95.5%; in data set [18], 129%; in data set [19], 99%; in data set [20], 88.5%. For the same compound, the residual activity in [21] was 98%; in [22] it was 100%; in data set [23], 96.5%; in data set [24], 93%. For the same compound, the activity at 20 µM in [17] is on record as 91% (not active).
